Converted amounts (≈) assume the structure as drawn.
How the values were obtained:
[1] = test system: Mycobacterium tuberculosis; assay: Antitubercular activity against Mycobacterium tuberculosis H37Rv ATCC 27294 after 11 days by serial dilution method; format: functional; conditions: H37Rv ATCC 27294, 264 h
[2] = Cytotoxicity against human L02 cells assessed as inhibitory ratio at 100 uM after 48 hrs by MTT assay; format: cell-based; conditions: read-out: INH

Row | Structure (SMILES) | MIC90 [1] | MIC99 [1] | cytotoxicity at 48 h, 100 µM [2]
1 | COc1cccc(-c2nc(=O)ss2)c1 | 16 mg/L (≈ 71 µM) | 32 mg/L (≈ 142 µM) | 38.6%
2 | O=c1oc(-c2ccc([N+](=O)[O-])cc2Cl)ns1 | 16 mg/L (≈ 61.9 µM) | 16 mg/L (≈ 61.9 µM) | 54.6%
3 | Cc1ccccc1-c1nc(=O)ss1 | 16 mg/L (≈ 76.4 µM) | 32 mg/L (≈ 153 µM) | 18.6%
4 | O=c1oc(-c2ccc(F)cc2)ns1 | 16 mg/L (≈ 81.1 µM) | 16 mg/L (≈ 81.1 µM) | 21.7%
5 | Cc1sc(-c2nsc(=O)o2)cc1[N+](=O)[O-] | 2 mg/L (≈ 8.19 µM) | 1 mg/L (≈ 4.09 µM) | 53.8%
6 | COc1ccc(OC)c(-c2nc(=O)ss2)c1 | 32 mg/L (≈ 125 µM) | 32 mg/L (≈ 125 µM) | 23.7%
7 | Cc1ccccc1-c1nsc(=O)o1 | 8 mg/L (≈ 41.4 µM) | 16 mg/L (≈ 82.8 µM) | 18.1%
8 | O=c1nc(-c2cccnc2Cl)ss1 | 32 mg/L (≈ 139 µM) | 16 mg/L (≈ 69.4 µM) | 34.4%
9 | O=c1nc(-c2ccc(Cl)cc2)ss1 | 64 mg/L (≈ 279 µM) | 32 mg/L (≈ 139 µM) | 46%
10 | Cc1ccc(-c2nc(=O)ss2)s1 | 16 mg/L (≈ 74.3 µM) | 32 mg/L (≈ 149 µM) | 36.3%
11 | O=c1nc(-c2ccc(F)cc2)ss1 | 32 mg/L (≈ 150 µM) | 16 mg/L (≈ 75 µM) | 33.7%
12 | COc1ccc(OC)c(-c2nsc(=O)o2)c1 | 16 mg/L (≈ 66.9 µM) | 16 mg/L (≈ 66.9 µM) | 25.3%
13 | COc1cccc(-c2nsc(=O)o2)c1 | 8 mg/L (≈ 38.2 µM) | 16 mg/L (≈ 76.5 µM) | 15%
14 | O=c1oc(-c2cccnc2Cl)ns1 | 8 mg/L (≈ 37.3 µM) | 8 mg/L (≈ 37.3 µM) | 31.4%
15 | O=c1nc(-c2ccccc2Cl)ss1 | 8 mg/L (≈ 34.8 µM) | 16 mg/L (≈ 69.7 µM) | 40.1%
16 | O=c1oc(-c2cc(F)c(Cl)nc2Cl)ns1 | 16 mg/L (≈ 59.9 µM) | 8 mg/L (≈ 30 µM) | 15.1%
17 | O=c1nc(-c2ccc3ccccc3c2)ss1 | 32 mg/L (≈ 130 µM) | 16 mg/L (≈ 65.2 µM) | 47.2%
18 | O=c1nc(-c2cnccn2)ss1 | 32 mg/L (≈ 162 µM) | 16 mg/L (≈ 81.1 µM) | 56.7%
19 | O=c1oc(-c2ccc(Cl)cc2)ns1 | 32 mg/L (≈ 150 µM) | 4 mg/L (≈ 18.7 µM) | 39.6%
20 | Cc1ccc(-c2nsc(=O)o2)s1 | 8 mg/L (≈ 40.1 µM) | 16 mg/L (≈ 80.3 µM) | 25.1%
21 | O=c1nc(-c2ccccc2[N+](=O)[O-])ss1 | 16 mg/L (≈ 66.6 µM) | 32 mg/L (≈ 133 µM) | 33%
22 | O=c1oc(-c2cnccn2)ns1 | 16 mg/L (≈ 88.3 µM) | 4 mg/L (≈ 22.1 µM) | 31.4%
23 | O=c1oc(-c2ccc3ccccc3c2)ns1 | 16 mg/L (≈ 69.8 µM) | 16 mg/L (≈ 69.8 µM) | 26.2%
24 | Nc1ccc(-c2nsc(=O)o2)cc1 | 16 mg/L (≈ 82.4 µM) | 16 mg/L (≈ 82.4 µM) | 39.5%
25 | O=c1nc(-c2ccc([N+](=O)[O-])cc2Cl)ss1 | 32 mg/L (≈ 116 µM) | 16 mg/L (≈ 58.2 µM) | 28.6%
26 | O=c1nc(-c2cc(F)c(Cl)nc2Cl)ss1 | 32 mg/L (≈ 113 µM) | 4 mg/L (≈ 14.1 µM) | 24.3%
27 | Nc1ccc(-c2nc(=O)ss2)cc1 | 16 mg/L (≈ 76.1 µM) | 32 mg/L (≈ 152 µM) | 46.3%
28 | O=c1oc(-c2ccccc2[N+](=O)[O-])ns1 | 8 mg/L (≈ 35.7 µM) | 16 mg/L (≈ 71.4 µM) | 32.4%
29 | O=c1oc(-c2ccccc2Cl)ns1 | 8 mg/L (≈ 37.4 µM) | 8 mg/L (≈ 37.4 µM) | 20.6%

— ChEMBL document CHEMBL2331501, “3H-1,2,4-Dithiazol-3-one compounds as novel potential affordable antitubercular agents” (Bioorg Med Chem Lett, 2013)
